Assay results: ChEMBL document CHEMBL1201862, “PubChem BioAssay data set” (2004)
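Protocol summary: plate cells (96-well), add compound at 5 concentrations, incubate 48 h, interpolate endpoints linearly. The concentration for 50% growth inhibition is given as GI50.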 Active and inactive are the calls of the source. Cut-off read from the data, not from the text of the source: active = GI50 up to about 1.1 µM and inactive = higher.

How the values were obtained:
Assay in all cases: inhibition of tumour cell growth, NCI panel, 48 h
NCI-H226 = tested on: NCI-H226
SR = tested on: SR
RPMI-8226 = tested on: RPMI-8226
ACHN = tested on: ACHN
SF-539 = tested on: SF-539
T47D = tested on: T47D
UO-31 = tested on: UO-31
LOX IMVI = tested on: LOX IMVI
NCI-H23 = tested on: NCI-H23
CCRF-CEM = tested on: CCRF-CEM
HOP-62 = tested on: HOP-62
U-251 = tested on: U-251
UACC-62 = tested on: UACC-62
MOLT-4 = tested on: MOLT-4
MDA-MB-231 = tested on: MDA-MB-231
NCI-H460 = tested on: NCI-H460
OVCAR-5 = tested on: OVCAR-5
COLO 205 = tested on: COLO 205
PC-3 = tested on: PC-3
OVCAR-3 = tested on: OVCAR-3

Measured: GI50

CCN(C(=O)N[C@@H](Cc1ccccc1)C(=O)N[C@@H](CC(C)C)C(=O)OC)c1ccccc1
inactive: NCI-H226 19.5 µM | SR 6.18 µM | RPMI-8226 20.1 µM | ACHN 21.3 µM | SF-539 19.5 µM | T47D 77.6 µM | UO-31 18.1 µM | LOX IMVI 13.8 µM | NCI-H23 24 µM | CCRF-CEM 19.3 µM | HOP-62 34.4 µM | U-251 25.9 µM | UACC-62 17.7 µM | MOLT-4 15.8 µM | MDA-MB-231 55.7 µM | NCI-H460 12.4 µM | OVCAR-5 23.2 µM | COLO 205 18 µM | PC-3 35.1 µM | OVCAR-3 26.5 µM

CCCNC1=C2C[C@@H](C)C[C@@H](OC)[C@@H](OC(=O)CCCN)[C@H](C)/C=C(\C)[C@@H](OC(N)=O)[C@H](OC)/C=C\C=C(/C)C(=O)NC(=CC1=O)C2=O
inactive: NCI-H226 18.5 µM | SR 7.98 µM | RPMI-8226 5.94 µM | ACHN 19.4 µM | SF-539 20.3 µM | T47D 12.7 µM | UO-31 19.2 µM | LOX IMVI 16 µM | NCI-H23 11.6 µM | CCRF-CEM 2.52 µM | HOP-62 15.6 µM | U-251 11.4 µM | UACC-62 13.9 µM | MOLT-4 6.9 µM | MDA-MB-231 14.1 µM | NCI-H460 11.2 µM | OVCAR-5 15.2 µM | COLO 205 3.52 µM | PC-3 12.6 µM | OVCAR-3 8.61 µM

O=c1oc2cc(/N=C/c3ccccc3Cl)ccc2c2ccccc12
inactive: NCI-H226 > 100 µM | SR > 100 µM | RPMI-8226 > 100 µM | ACHN > 100 µM | SF-539 > 100 µM | T47D > 100 µM | UO-31 40.1 µM | LOX IMVI 87.3 µM | NCI-H23 > 100 µM | CCRF-CEM > 100 µM | HOP-62 > 100 µM | U-251 > 100 µM | UACC-62 40.7 µM | MOLT-4 > 100 µM | MDA-MB-231 > 100 µM | NCI-H460 > 100 µM | OVCAR-5 > 100 µM | COLO 205 > 100 µM | PC-3 98.6 µM | OVCAR-3 > 100 µM

CCCCCCCCCCNC1CC(OC2CC(O)(C(O)CO)Cc3c(O)c4c(c(O)c32)C(=O)c2c(OC)cccc2C4=O)OC(C)C1O (stereo not given)
inactive: NCI-H226 1.79 µM | ACHN 1.73 µM | SF-539 1.77 µM | T47D 1.86 µM | UO-31 1.77 µM | NCI-H23 2.63 µM | HOP-62 1.66 µM | UACC-62 1.79 µM | MDA-MB-231 1.36 µM | OVCAR-5 1.8 µM | COLO 205 1.66 µM | PC-3 1.47 µM | OVCAR-3 1.69 µM
active: SR 0.408 µM | RPMI-8226 0.839 µM | LOX IMVI 0.641 µM | CCRF-CEM 0.388 µM | U-251 0.986 µM | MOLT-4 0.189 µM | NCI-H460 0.601 µM

Cc1nc2ccc(Cl)cc2c2c1CCN2c1ccc(F)cc1
inactive: NCI-H226 16.2 µM | SR 13.1 µM | RPMI-8226 8.24 µM | ACHN 17.7 µM | SF-539 22.3 µM | T47D 36.1 µM | UO-31 5.4 µM | LOX IMVI 8.73 µM | NCI-H23 20.2 µM | CCRF-CEM 11.6 µM | HOP-62 18.9 µM | U-251 45.8 µM | UACC-62 15.2 µM | MOLT-4 4.72 µM | MDA-MB-231 7.48 µM | NCI-H460 7.03 µM | OVCAR-5 84.9 µM | COLO 205 9.95 µM | PC-3 11 µM | OVCAR-3 21.8 µM
